Measurements reported in patent publication US8377993B2, “Insecticidal compound” (Dainihon Jochugiku Co., Ltd., priority 2010, dated 2013).
Entries after “also recorded” stand apart in the source; their conditions may differ.

Key:
[1] = tested on: adults of Blattella germanica; details: on the basis of the LD50 value by a microdropping method; cited from earlier work
adults of house flies = details: cited from earlier work
Female house mosquitoes = assay: Petri dish insecticidal efficacy test (KT100 and mortality after 24 hours); assay type: in vivo
Source text: The fractionated component E2-4-2 which is a mixture of compound A and compound B was subjected to the insecticidal efficacy test based on the test conditions shown in Table 3, wherein the concentration of the fractionated component E2-4-2, natural pyrethrin, and dl-d-T80-allethrin was further diluted for the test.

In the case of `C=CCC1=C(C)C(OC(=O)C2C(C=C(C)C)C2(C)C)CC1=O` (racemic) [dl-d-T80-allethrin], the “dose required for killing the adults of Blattella germanica relative to the dose required for killing the adults of house mosquitoes” value [1] is given as “about 103 times”, the “dose required for killing the adults of house flies relative to the dose required for killing the adults of house mosquitoes” value (adults of house flies; on the basis of the LD50 value by a microdropping method) is given as “about 17 times” and the “dose required for killing the adult house flies relative to the dose required for killing northern house mosquitoes” value (adults of house flies; rounded statement) is given as “about 20 times”. For the same molecule, the KT100 value (Female house mosquitoes; Table 4, 0.001 mg/6.15 cm^2) was 50 min, the “The mortality after 24 hours” value (Female house mosquitoes; Table 4, 0.001 mg/6.15 cm^2) was 83% and the KT100 value (Female house mosquitoes; Table 4, 0.01 mg/6.15 cm^2) was <5 min. For the same molecule, the “The mortality after 24 hours” value (Female house mosquitoes; Table 4, 0.01 mg/6.15 cm^2) was 100%, the “The mortality after 24 hours” value (Female house mosquitoes; Table 4, 0.1 mg/6.15 cm^2) was 100% and the KT100 value (Female house mosquitoes; Table 4, 0.1 mg/6.15 cm^2, time to 100% knockdown) was <5 min. For the same molecule, the KT100 value (Female house mosquitoes; Table 5, 10^−1 mg/6.15 cm^2) was <5 min, the “The mortality after 24 hours” value (Female house mosquitoes; Table 5, 10^−1 mg/6.15 cm^2) was 100% and the KT100 value (Female house mosquitoes; Table 5, 10^−2 mg/6.15 cm^2) was <5 min. The “The mortality after 24 hours” value (Female house mosquitoes; Table 5, 10^−2 mg/6.15 cm^2) was 100%, the KT100 value (Female house mosquitoes; Table 5, 10^−3 mg/6.15 cm^2) was 50 min and the “The mortality after 24 hours” value (Female house mosquitoes; Table 5, 10^−3 mg/6.15 cm^2) was 83%. For the same molecule, the KT100 value (Female house mosquitoes; Table 5, 10^−4 mg/6.15 cm^2) was >120 min, the “The mortality after 24 hours” value (Female house mosquitoes; Table 5, 10^−4 mg/6.15 cm^2) was 17% and the KT100 value (Female house mosquitoes; Table 7, 10^−5 mg/6.15 cm^2) was “cannot achieved; also recorded: Survive”. The “The mortality after 24 hours” value (Female house mosquitoes; Table 7, 10^−5 mg/6.15 cm^2) was 0%.
